Our source for the IC50 values is ChEMBL document CHEMBL4808238, “Small Molecule Inhibitors of KRAS Mutant as a Therapeutic Strategy for the Treatment of Cancer” (ACS Med Chem Lett, 2021).

Each structure is given as a SMILES string.

For orientation: IC50 means the concentration that inhibits the measured activity by half.

The target of this assay is GTPase KRas (Homo sapiens, UniProt P01116, G12C). The experiment in a line: Inhibition of biotinylated KRAS G12C mutant (unknown origin) assessed as inhibition of SOS-catalyzed nucleotide exchange preincubated for 60 mins followed by addition of human recombinant SOS protein and unlabeled GTP and measured after 60 mins by TR-FRET analysis.
Sequence of GTPase KRas (P01116 whole entry G12C): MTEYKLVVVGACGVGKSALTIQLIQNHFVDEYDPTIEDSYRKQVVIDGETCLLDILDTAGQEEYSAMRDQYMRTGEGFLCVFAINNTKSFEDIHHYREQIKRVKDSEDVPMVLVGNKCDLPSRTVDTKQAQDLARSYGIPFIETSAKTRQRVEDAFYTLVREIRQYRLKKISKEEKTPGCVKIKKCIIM
For `C=CC(=O)N1CCN(c2cc(C(=O)N[C@@H]3CCC[C@H]3N(C)C)nc3c2CCN(c2cccc4cccc(C)c24)C3)C[C@@H]1CC#N`, the IC50 worked out at 1 nM.
On to `C=CC(=O)N1CCN(c2cc(C(=O)NC(C)CN3CCC(C)(O)C3)nc3c2CCN(c2cccc4cccc(C)c24)C3)C[C@@H]1CC#N` (stereo in doubt; 76), for which the IC50 was 6.2 nM.
Regarding `C=CC(=O)N1CCN(c2cc(C(=O)NC3(CC)CCNC3)nc3c2CCN(c2cccc4cccc(C)c24)C3)C[C@@H]1CC#N` (stereo partly specified), the IC50 was determined as 4.5 nM.
As for `C=C(F)C(=O)N1CCN(c2cc(C(=O)NC(C)CN3CCC(C)(O)C3)nc3c2CCN(c2cccc4cccc(C)c24)C3)C[C@@H]1CC#N` (stereo partly specified), the IC50 amounted to 5 nM.
As for `C=CC(=O)N1CCN(c2cc(C(=O)N[C@H](C)CN3CC(C)(O)C3)nc3c2CCN(c2cccc4cccc(C)c24)C3)C[C@@H]1CC#N`, the IC50 was determined as 2.2 nM.
As for `C=CC(=O)N1CCN(c2cc(C(=O)N[C@H](C)CN(C)C)nc3c2CCN(c2c(Cl)c(C)cc4[nH]ncc24)C3)C[C@@H]1CC#N`, the IC50 is 0.9 nM.
With `C=CC(=O)N1CCN(c2cc(C(=O)NC[C@H]3CCCN3)nc3c2CCN(c2cccc4cccc(C)c24)C3)C[C@@H]1CC#N` the figure was 6.2 nM; with `C=CC(=O)N1CCN(c2cc(C(=O)NC(C)CN3CCC(C)(O)C3)nc3c2CCN(c2cccc4cccc(C)c24)C3)C[C@@H]1CC#N` (stereo in doubt; 75), 7.2 nM.
To `C=CC(=O)N1CCN(c2cc(C(=O)NCC3CCCCN3)nc3c2CCN(c2cccc4cccc(C)c24)C3)C[C@@H]1CC#N` (stereo partly specified) belongs 8.3 nM; to `C=CC(=O)N1CCN(c2cc(C(=O)NC3(C)CCCNC3)nc3c2CCN(c2cccc4cccc(C)c24)C3)C[C@@H]1CC#N` (stereo partly specified), 5.4 nM; to `C=C(F)C(=O)N1CCN(c2cc(C(=O)N[C@H](C)CN(C)C)nc3c2CCN(c2cccc4cccc(C)c24)C3)C[C@@H]1CC#N`, 8.3 nM.
